Tests used:
CYP1A2 = molecular target: T1, CYP1A2 (Homo sapiens, UniProt P05177); experiment: CYP-enzyme phenotyping using human liver microsomes and recombinant CYP enzymes; assay type: in vitro ADME
T1 construct: CYP-enzyme phenotyping using human liver microsomes and recombinant CYP enzymes; from tissue; host or cells: human liver microsomes

[1] = Drug-drug interaction study Part 1: plasma PK after 20 mg mitapivat sulfate alone or with itraconazole; assay type: in vivo, human; settings: for Total exposure in the presence of itraconazole compared to dosing of mitapivat sulfate alone: 20 mg mitapivat sulfate, 200 mg itraconazole; for AUC(0-inf) / AUC(0-t) / Cmax: both sexes, human, healthy subjects; for AUC(0-inf): read-out: AUC0-inf, Geometric LSM; for AUC(0-t): read-out: AUC0-t, Geometric LSM; for Cmax: read-out: Cmax, Geometric LSM
Description: (§1) Twenty-eight (28) healthy, adult male and female (non-childbearing potential) subjects were enrolled in the study in total; 14 subjects in each study part (Parts 1 and 2). A minimum of 8 female subjects were enrolled in the study (i.e., a minimum of 4 female subjects per study part). Each subject participated in either Part 1 or Part 2, but not both.
On Day 1 of Treatment Period 1, a single oral dose of 20 mg mitapivat sulfate was administered. Serial blood samples for plasma assay of mitapivat concentrations and its CYP3A4 metabolite, referred to herein as the “Metabolite” (structure below),
[drawing 3] were collected from predose to 120 hours following administration of mitapivat sulfate. In Treatment Period 2, an oral dose of 200 mg itraconazole was administered once daily (QD) for 9 consecutive days (Day 1 through Day 9 of Treatment Period 2) with a single oral dose of 20 mg mitapivat sulfate coadministered on Day 5. Serial blood samples for plasma assay of mitapivat and the Metabolite concentrations were collected from predose to 120 hours following coadministration of mitapivat sulfate and itraconazole on Day 5.
In Treatment Period 1, mitapivat sulfate was administered orally with approximately 240 mL of water. In Treatment Period 2, on Days 1 to 4, itraconazole was administered alone immediately followed by approximately 220 mL of water, and on Day 5, itraconazole was administered first (no water) and was immediately followed by mitapivat sulfate administration with approximately 220 mL of water. Study drugs (mitapivat sulfate and itraconazole) were administered following an overnight fast of at least 10 hours on Day 1 of Treatment Period 1 (mitapivat sulfate only) and Day 5 of Treatment Period 2 (mitapivat sulfate and itraconazole), and subjects remained fasted for 4 hours after dosing. On all other dosing days, itraconazole was administered following a predose fast of at least 4 hours and subjects remained fasted for at least 2 hours after dosing.
Mitapivat sulfate (20 mg tablets) administered along with Itraconazole (also referred to as Sporanox®, 10 mg/mL oral solution, is considered as the test arm in this study. Mitapivat sulfate administered alone is considered as the reference arm in this study. In Period 1, a single oral dose of 20 mg mitapivat sulfate was administered orally with approximately 240 mL of water. In Period 2, on Day 5 (coadministration of itraconazole and mitapivat sulfate), 200 mg itraconazole (20 mL of 10 mg/mL oral solution) was administered first (no water) and was immediately followed by 20 mg mitapivat sulfate (1×20 mg tablet) administration with approximately 220 mL of water. On all other dosing days, itraconazole was administered alone immediately followed by approximately 220 mL of water. Each subject received 2 doses of mitapivat sulfate and 9 doses of itraconazole in Part 1.
(§2) In Parts 1 and 2, for mitapivat and the Metabolite, blood samples were obtained for all subjects to determine the plasma concentrations of mitapivat, and the Metabolite, before mitapivat sulfate dosing (0 hour) on Day 1 of Period 1 (Parts 1 and 2) and Day 5 (Part 1) or Day 8 (Part 2) of Period 2 at 0.5, 1, 1.5, 2, 3, 4, 5, 6, 8, 12, 16, 24, 48, 72, 96, and 120 hours postdose. Plasma concentrations of mitapivat and the Metabolite were determined using methods validated with respect to accuracy, precision, linearity, sensitivity, and specificity, with a lower limit of quantitation (LLOQ) of 0.5 ng/mL for both analytes. A noncompartmental PK approach was used to analyze individual plasma mitapivat and the Metabolite concentration time data (using Phoenix® WinNonlin® Version 7.0). The following PK parameters were calculated: AUC0-t, AUC0-inf, AUC0-24, AUC%extrap, Cmax, CL/F (mitapivat only), Tlast, Tmax, t½, and Vz/F (mitapivat only).
(§3) PK parameters were presented with a minimum of 3 significant figures. […]

[2] = Drug-drug interaction study Part 2: plasma PK after 50 mg mitapivat sulfate alone or with rifampin; assay type: in vivo, human; settings: for Nominal time of peak arithmetic mean concentration: postdose; for Nominal time of peak arithmetic mean concentration / AUC(0-inf) / AUC(0-t) / Cmax: plasma; for Total exposure in the presence of rifampin compared to dosing of mitapivat sulfate alone: 50 mg mitapivat sulfate, 600 mg rifampin; for AUC(0-inf) / AUC(0-t) / Cmax: both sexes, human, healthy subjects; for AUC(0-inf): read-out: AUC0-inf, Geometric LSM; for AUC(0-t): read-out: AUC0-t, Geometric LSM; for Cmax: read-out: Cmax, Geometric LSM
Description: as §1
On Day 1 of Treatment Period 1, a single oral dose of 50 mg mitapivat sulfate was administered. Serial blood samples for plasma assay of mitapivat and the Metabolite concentrations were collected from predose to 120 hours following administration of mitapivat sulfate. In Treatment Period 2, an oral dose of 600 mg rifampin was administered QD for 12 consecutive days (Day 1 through Day 12 of Treatment Period 2) with a single oral dose of 50 mg mitapivat sulfate coadministered on Day 8. Serial blood samples for plasma assay of mitapivat sulfate and the Metabolite concentrations were collected from predose to 120 hours following coadministration of mitapivat and rifampin on Day 8.
In Part 2, study drugs were administered with approximately 240 mL of water on all dosing days including the coadministration of mitapivat sulfate and rifampin on Day 8 of Treatment Period 2. Mitapivat sulfate and rifampin was administered following an overnight fast of at least 10 hours on Day 1 of Treatment Period 1 (mitapivat sulfate only) and Day 8 of Treatment Period 2 (both mitapivat sulfate and rifampin) and subjects remained fasted for 4 hours after dosing. On all other dosing days, rifampin was administered following a predose fast of at least 4 hours and subjects remained fasted for at least 2 hours after dosing. There was a washout period of 7 days between the mitapivat sulfate dose in Treatment Period 1 and the first itraconazole (Part 1) or rifampin (Part 2) dose in Treatment Period 2. All study drugs were consumed within 5 minutes for both Part 1 and Part 2.
Mitapivat sulfate (50 mg tablets) administered along with Rifampin (also referred to as Rifadin®, 300 mg capsules) is considered as the test arm in this study. Mitapivat sulfate (50 mg tablets) administered alone is considered as the reference arm in this study.
In Period 1, a single oral dose of 50 mg mitapivat sulfate was administered orally. In Period 2, subjects were administered 600 mg rifampin (2×300 mg capsules) QD on Day 1 to Day 12 inclusive, with 50 mg mitapivat sulfate (1×50 mg tablet) coadministered on Day 8. Study drugs were administered with approximately 240 mL of water on all dosing days including the coadministration of mitapivat sulfate and rifampin on Day 8 of Period 2.
as §2, §3

CYP3A4/5 = experiment: CYP-enzyme phenotyping using human liver microsomes and recombinant CYP enzymes; assay type: in vitro ADME
[3] = plasma, 20 mg mitapivat sulfate oral alone (Reference)
[4] = plasma, 20 mg mitapivat sulfate oral on Day 5 + 200 mg itraconazole QD Days 1-9 (Test)
[5] = 50 mg mitapivat sulfate coadministered with 600 mg rifampin (Period 2)
[6] = 50 mg mitapivat sulfate given alone (Period 1)
[7] = 50 mg mitapivat sulfate oral alone (Reference)
[8] = 50 mg mitapivat sulfate oral on Day 8 + 600 mg rifampin QD Days 1-12 (Test)

T1 sequence (P05177 whole entry): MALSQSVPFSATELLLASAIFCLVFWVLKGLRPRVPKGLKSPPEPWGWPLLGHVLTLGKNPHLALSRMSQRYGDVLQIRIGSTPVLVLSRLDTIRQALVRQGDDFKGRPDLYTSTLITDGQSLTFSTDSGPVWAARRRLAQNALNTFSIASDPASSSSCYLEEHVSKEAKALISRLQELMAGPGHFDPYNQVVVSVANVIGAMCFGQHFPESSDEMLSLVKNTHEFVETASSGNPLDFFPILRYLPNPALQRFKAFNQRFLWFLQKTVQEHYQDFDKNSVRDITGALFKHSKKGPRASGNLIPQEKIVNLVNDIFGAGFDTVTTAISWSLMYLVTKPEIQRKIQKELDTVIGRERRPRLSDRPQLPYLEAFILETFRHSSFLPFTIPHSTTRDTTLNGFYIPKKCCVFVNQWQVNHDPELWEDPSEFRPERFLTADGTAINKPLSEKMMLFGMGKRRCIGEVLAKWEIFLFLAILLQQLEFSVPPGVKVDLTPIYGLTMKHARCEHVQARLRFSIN

| SMILES | Contribution of CYP1A2 to metabolism (CYP1A2) | Total exposure in the presence of itraconazole compared to dosing of mitapivat sulfate alone [1] | AUC(0-inf) [1, 3] [ng·h/mL] | AUC(0-t) [1, 3] [ng·h/mL] | Cmax [1, 3] [ng/mL] | AUC(0-inf) [1, 4] [ng·h/mL] | AUC(0-t) [1, 4] [ng·h/mL] | Cmax [1, 4] [ng/mL] | Delay in time to peak concentration ([1]; coadministered with itraconazole compared to administered alone, plasma) | Nominal time of peak arithmetic mean concentration [2, 5] [h] | Nominal time of peak arithmetic mean concentration [2, 6] | Total exposure in the presence of rifampin compared to dosing of mitapivat sulfate alone [2] | AUC(0-inf) [2, 7] [ng·h/mL] | AUC(0-t) [2, 7] [ng·h/mL] | Cmax [2, 7] [ng/mL] | AUC(0-inf) [2, 8] [ng·h/mL] | AUC(0-t) [2, 8] [ng·h/mL] | Cmax [2, 8] [ng/mL] | Share of metabolism by CYP3A4/5 (primarily metabolized by) (CYP3A4/5) [%] |
| --- | --- | --- | --- | --- | --- | --- | --- | --- | --- | --- | --- | --- | --- | --- | --- | --- | --- | --- | --- |
| O=C(c1ccc(NS(=O)(=O)c2cccc3cccnc23)cc1)N1CCN(CC2CC2)CC1 [Mitapivat, N-(4-(4-(cyclopropylmethyl)piperazine-1-carbonyl)phenyl)quinoline-8-sulfonamide] | minor contributions | increased | 1940 | 1880 | 412 | 9480 | 8860 | 704 | approximately 2 hours | ~0.5 | approximately 1 hour | decreased | 5680 | 5560 | 1260 | 496 | 486 | 292 | > 90 |
| O=C(c1ccc(NS(=O)(=O)c2cccc3cccnc23)cc1)N1CCNCC1 [Metabolite] |  | increased | 216 | 197 | 18.8 | 339 | 300 | 9.11 |  | ~1 | approximately 2 hour | decreased | 663 | 623 | 53.8 | 245 | 230 | 64.5 |  |

— patent US11878049B1, “Mitapivat therapy and modulators of cytochrome P450” (Agios Pharmaceuticals, Inc., priority 2019, dated 2024)
